IC50 data for one compound are collected here from publication PMC4177084 (Journal of Thyroid Research, 2014).

Assay [1] deals with 8505C cells. Briefly: Antiproliferation assay (WST-8). It is filed as cell-based. The conditions noted are these: Homo sapiens, 72 h; 8505C (ATC), antiproliferative, 3 days.
For assay [2], the target named is T1, FLT4/VEGFR3 (Homo sapiens, UniProt P35916).
T1 construct: purchased Carna Biosciences, Inc. (Kobe, Japan)
Briefly: Cell free kinase inhibition assay. The class given is biochemical.

For assay [3], the system named is FTC-133 cells. Briefly: Antiproliferation assay (WST-8). The class given is cell-based, human. The conditions noted are these: Homo sapiens, 72 h; FTC-133 (DTC), antiproliferative, 3 days. (Tetrazolium assays rely on reduction of a dye to a coloured formazan, in cell work by metabolically active cells.)

Each structure is given as a SMILES string.

T1 sequence (P35916 25-1363): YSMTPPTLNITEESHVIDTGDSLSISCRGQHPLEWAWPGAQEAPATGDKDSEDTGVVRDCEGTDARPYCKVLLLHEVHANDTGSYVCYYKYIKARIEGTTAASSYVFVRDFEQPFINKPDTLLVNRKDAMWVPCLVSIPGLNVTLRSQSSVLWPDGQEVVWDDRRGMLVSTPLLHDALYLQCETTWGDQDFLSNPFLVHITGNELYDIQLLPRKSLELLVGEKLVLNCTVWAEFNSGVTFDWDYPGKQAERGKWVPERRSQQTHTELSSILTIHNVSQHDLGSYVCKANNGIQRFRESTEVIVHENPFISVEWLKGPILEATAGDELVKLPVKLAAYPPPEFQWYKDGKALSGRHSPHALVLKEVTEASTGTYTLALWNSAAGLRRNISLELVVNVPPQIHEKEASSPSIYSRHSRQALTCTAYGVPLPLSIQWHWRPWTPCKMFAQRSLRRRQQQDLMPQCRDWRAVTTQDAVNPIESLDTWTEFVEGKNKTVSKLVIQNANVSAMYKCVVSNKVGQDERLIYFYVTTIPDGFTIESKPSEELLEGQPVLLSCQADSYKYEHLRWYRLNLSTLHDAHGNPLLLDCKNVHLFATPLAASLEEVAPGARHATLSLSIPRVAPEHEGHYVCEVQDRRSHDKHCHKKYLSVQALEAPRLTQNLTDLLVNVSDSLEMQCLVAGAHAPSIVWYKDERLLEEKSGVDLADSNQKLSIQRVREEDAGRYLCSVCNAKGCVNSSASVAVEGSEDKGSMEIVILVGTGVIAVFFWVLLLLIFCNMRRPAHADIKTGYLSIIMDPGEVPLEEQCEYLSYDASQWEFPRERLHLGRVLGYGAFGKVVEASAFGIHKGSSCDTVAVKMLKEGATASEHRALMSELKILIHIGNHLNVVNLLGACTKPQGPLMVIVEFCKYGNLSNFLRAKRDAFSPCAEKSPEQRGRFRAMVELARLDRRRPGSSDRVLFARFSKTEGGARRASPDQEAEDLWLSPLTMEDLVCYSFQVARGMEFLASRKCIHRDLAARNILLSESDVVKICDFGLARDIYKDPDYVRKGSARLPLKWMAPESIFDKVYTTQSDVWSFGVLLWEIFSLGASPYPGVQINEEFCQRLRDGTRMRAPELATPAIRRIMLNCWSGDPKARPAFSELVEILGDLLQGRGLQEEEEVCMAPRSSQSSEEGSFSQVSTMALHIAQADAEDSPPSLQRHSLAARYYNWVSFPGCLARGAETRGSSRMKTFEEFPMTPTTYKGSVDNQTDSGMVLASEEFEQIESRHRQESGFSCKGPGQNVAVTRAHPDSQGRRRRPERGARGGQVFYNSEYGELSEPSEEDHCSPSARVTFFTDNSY

For the compound `COc1cc2nccc(Oc3ccc(NC(=O)NC4CC4)c(Cl)c3)c2cc1C(N)=O` [Lenvatinib, Lenvatinib mesilate], the results for the IC50 in assay [1], in assay [2] and in assay [3] were 26 µM, 0.0023 µM and 24 µM, respectively.

The term IC50 denotes the concentration at which inhibition is half-maximal. A lower IC50 goes with higher potency.
